Results taken from BigSolDB 2.1.

O=C1NC(=O)C2C3C=CC(C3)C12 (stereo not drawn)
solubility (mole fraction)
Conditions | 278.15 K | 283.15 K | 288.15 K | 293.15 K | 298.15 K | 303.15 K | 308.15 K | 313.15 K | 318.15 K | 323.15 K
in 1,4-dioxane | – | – | 0.0363 | 0.0402 | 0.0495 | 0.0576 | 0.0649 | 0.0738 | 0.0843 | 0.0962
in 2-ethoxyethanol | 0.019 | 0.0224 | 0.0255 | 0.0295 | 0.0336 | 0.0384 | 0.0442 | 0.0481 | 0.0551 | 0.0627
in DMF | 0.0637 | 0.0717 | 0.081 | 0.0915 | 0.107 | 0.116 | 0.129 | 0.145 | 0.159 | 0.177
in acetone | 0.0128 | 0.0146 | 0.0171 | 0.0196 | 0.0225 | 0.0255 | 0.029 | 0.0328 | 0.0369 | 0.0414
in ethanol | 0.00441 | 0.00512 | 0.00642 | 0.00789 | 0.00949 | 0.0115 | 0.0138 | 0.0165 | 0.0195 | 0.0233
in ethyl acetate | 0.00821 | 0.00971 | 0.0112 | 0.0128 | 0.0146 | 0.0171 | 0.0195 | 0.0223 | 0.0255 | 0.029
in isopropyl acetate | 0.0046 | 0.00565 | 0.00672 | 0.00781 | 0.00903 | 0.0105 | 0.0124 | 0.0143 | 0.0164 | 0.019
in methanol | 0.00626 | 0.00766 | 0.00855 | 0.0104 | 0.0127 | 0.0157 | 0.0182 | 0.0219 | 0.026 | 0.0308
in methyl acetate | 0.0113 | 0.0135 | 0.0159 | 0.0187 | 0.0223 | 0.0259 | 0.0303 | 0.0352 | 0.041 | 0.0474
in n-butyl acetate | 0.00431 | 0.00523 | 0.00617 | 0.00718 | 0.00869 | 0.0103 | 0.0117 | 0.0135 | 0.0156 | 0.0178
in n-propyl acetate | 0.00537 | 0.00631 | 0.00782 | 0.00907 | 0.0106 | 0.0124 | 0.0145 | 0.0168 | 0.0193 | 0.0221
